What was measured:
[1] = system: cyclins and cyclin-dependent kinases; assay: Abundance of CDKs and cyclins in CAL33 cells; format: cell-based; settings: CAL33, 48 hours
Experimental: Generally, cells were plated in six-well or 35-mm plates for 24 hours, after which doxycycline was added or treatment with specific inhibitor was administered using […] for 48 hours. After appropriate treatment time, cells were washed with ice-cold phosphate-buffered saline without Ca and Mg (Quality Biological) and then lysed on ice with RIPA buffer (50 mM NaCl, 1.0% o IGEPAL® CA-630, 0.5% o sodium deoxycholate, 0.10% SDS, 50 mM Tris, pH 8.0) (Sigma-Aldrich) supplemented with protease inhibitor tablet (Sigma-Aldrich) and phosphatase inhibitor cocktails 2 and 3 (Sigma-Aldrich) followed by centrifugation at 15,000 rpm for 10 minutes at 4° C. Protein concentrations were determined from the cell lysate by using 660 nm Protein Assay Reagent (Pierce). Cell extracts were denatured, subjected to SDS-PAGE, transferred to PVDF membranes (Bio-Rad) and blocked for 2 hours using 5 bovine serum albumin (BSA) in phosphate-buffered saline and 0.10 Tween® 20 (PBS-T). The membranes were incubated with the specific antibodies overnight in […] at 4° C. followed by a 1 hour incubation with the appropriate horseradish peroxidase-conjugated secondary antibodies and signal was detected by chemiluminescence (Thermo Fisher).

[2] = Kinetic solubility assay; format: physicochemical; settings: kinetic from dmso stock

solubility [2]: < 1 µg/mL
Compound: Cc1ncsc1-c1ccc([C@H](C)NC(=O)[C@@H]2C[C@@H](O)CN2C(=O)[C@@H](NC(=O)CCCCCCC(=O)N2CCC(c3cc(Nc4cc(C#N)ccn4)nc(N4CCC(F)(F)C4)c3)CC2)C(C)(C)C)cc1 [Compound 3]
expression of cyclins and cyclin-dependent kinases [1]: decreased expression of cyclins and cyclin-dependent kinases

Source: US20240190838A1, “LZK-TARGETING DEGRADERS AND METHODS OF USE” (The U.S.A., as represented by the Secretary, Department of …, priority 2020, published 2024)
